Experimental data from US6242432A, “Antithrombotic organic nitrates” (Nicox S.A., priority 1996, dated 2001).

Assays:
[1] = tested on: platelet aggregation induced by collagen; experiment: Antiplatelet activity: inhibition of collagen-induced platelet aggregation in vivo; parameters: species or system male Wistar rats; conditions: rats, 10 mg/kg oral daily for 5 days; collagen 2 mg/kg i.v.; per-cent inhibition of the control group
Experimental: (§1) The products from Examples 1 and 2 had been administered in vivo always as 2%-by-weight suspensions in carboxymethyl cellulose.
(§2) The experimental groups were made up of 6 to 8 samples to allow appropriate statistical evaluation, which was carried out when needed.
The ability of NO-ENA and NO-TIM to inhibit platelet aggregation was evaluated using an in vivo model as described by Pinon (J. Pharmacol. Methods 12,79,1989). 5 groups of male Wistar rats (200 to 250 g) received an oral daily dose of 10 mg/kg of respectively, NO-ENA, enalapril, NO-TIM, timolol or vehicle for 5 days. At an appropriate time on the forth day food (but not water) was withdrawn. 18 to 20 hours later the animals received the last treatment. One hour later the animals were anaesthetized with 10% urethane ([…] intraperitoneally) and the left jugular vein and right carotid artery were incannulated. Collagen (type 6, Sigma) was then administered intravenously at a dose of 2 mg/kg. Three minutes later two blood samples (A and B) were collected from the carotide artery using 2.5-ml plastic syringes in the following manner: sample A, 0.4 ml of blood in 1.6 ml of EDTA/formalin buffer (ETDA tetrasodium salt 24 mM, KH2 PO4 1.3 mM, Na2 PO4 13.4 mM), the samples were then transferred into 5-ml polystyrene test tubes and allowed to settle for 15 minutes at ambient temperature. After this time, the platelet aggregations in sample A were fixed in formalin, while those from sample B were treated with EDTA. Platelet count was then made in each sample using a conventional microscope. The count for sample B was the total number of platelets, while for sample A were considered only non-aggregated platelets. The results were expressed as per-cent aggregation, calculated as follows: {[1-(platelet count in sample A)/(platelet count in sample B)]×100}.

[2] = tested on: thrombosis induced by collagen plus adrenaline; experiment: Antithrombotic activity: collagen plus adrenaline induced thrombosis/death; format: in vivo, male Charles River rats of the Swiss strain; conditions: 10 mg/kg oral daily for 5 days; collagen plus adrenaline 100 μM into caudal vein
Experimental: as §1, §2
5 groups of male Charles River rats of the Swiss strain, 15 to 20 g, received a daily oral dose of 10 mg/kg of, respectively, NO-ENA, enalapril, NO-TIM, timolol or vehicle for 5 days. At an appropriate time on the fourth day food (but not water) was withdrawn. 18 to 20 hours later the animals received the last treatment. One hour later the animals were injected into the caudal vein with 0.1 ml of a collagen (type 6, Sigma) mixture plus adrenaline hydrochloride (100 μM) diluted in a solution of 0.154 M sodium chloride. As previously explained (Cirino G. et al., Thrombosis Reasearch 79, 73, 1995), injection of this mixture caused death within 3 minutes in 90% of the control animals.

[3] = tested on: arterial hypertension induced by L-NAME; experiment: Antihypertensive activity: L-NAME induced arterial hypertension; format: in vivo, male Wistar rats; conditions: rats, 10 mg/kg intravenous daily for 5 days, 1 h after treatment, vehicle 170 ± 7, * P < 0.05 versus the other two groups
Experimental: as §1, §2
The ability of NO-ENA to inhibit hypertension was evaluated using an in vivo model as described by Ribeiro et al. (Hypertension 20, 298, 1992). 5 groups of male Wistar rats (235 to 284 g) received a daily intravenous dose of 10 mg/kg of, respectively, NO-ENA, enalapril, NO-TIM, timolol or vehicle for 5 days. Arterial hypertension was induced by administration of N^w -nitro-L-argininemethyl ester (L-NAME) in the drinking water for 6 weeks. L-NAME was dissolved in the drinking water at a concentration of 60 to 70 mg 100 ml^-1 so as to administer a daily amount of about 60 mg kg^-1. One hour after treatment the systemic blood pressure was measured by the tail-cap method (Zats, Lab. Anim. Sci.42, 198, 1990).

[4] = tested on: bronchoconstriction induced by capsaicin; experiment: Effects on capsaicin-induced bronchoconstriction; format: in vivo, female Guinea pigs; conditions: Guinea pigs, 10 mg/kg intraduodenal; capsaicin 1 μg/kg 45 min later; vehicle = 100
Experimental: Bronchoconstriction induced by capsaicin in Guinea pigs is an animal model related to the ability of ACE (angiotensin-converting enzyme) inhibitors to cause cough in patients (Subissi et al., J. Cardiovasc. Pharmacol.20/1,139-146, 1992).
Adopted test conditions were as previously described by Del Soldato et al. (J. Pharmacological Methods 5, 279, 1981). Female Guinea pigs weighing 300 to 400 g were anaesthetised by intraperitoneal injection of sodium 5,5-diethylbarbiturate (200 mg/kg) and maintained under artificial respiration at constant positive pressure. The right jugular vein was incannulated for administering […]. By a median incision of the abdomen, the duodenum was removed and through a small incision the tip of a suitable polyethylene cannula was inserted and fixed. The other end of the cannula was connected to a syringe for intraduodenal administration of NO-ENA (10 mg/kg), enalapril (10 mg/kg) or vehicle. […] Before and after injection of capsaicin, changes in the tidal area were measured by a modified Konzett apparatus connected to a suitable polygraphic amplifier (Hewlett Packard).
The results were calculated as the ratio of the responses obtained before and after administration of the test compound, expressed as a % of the response obtained with the vehicle alone, shown in Table 4.

intraocular pressure = experiment: Ocular hypotensive activity, topical application in rabbits; format: in vivo; conditions: topical application of 100 μg
[5] = Plasma/aqueous humor concentration ratio by HPLC (ocular safety); format: in vivo; conditions: rabbits, topical, versus timolol
Experimental: Furthermore, for NO-TIM, the ratio between product concentrations in plasma (P) and aqueous humor (AH) versus timolol was determined by an HPLC method.

SMILES | ANTIPLATELET ACTIVITY (per-cent inhibition of platelet aggregation versus vehicle control) [1] [%] | ANTITHROMBOTIC ACTIVITY (inhibition percentage compared to the control group) [2] [%] | MEAN BLOOD PRESSURE [3] [mmHg] | BRONCHOCONSTRICTIVE RESPONSE (% of the response obtained with the vehicle alone) [4] [%] | duration of intraocular pressure reduction (intraocular pressure) | reduction of intraocular pressure (intraocular pressure) [mmHg] | reduction of intraocular pressure versus timolol and enalapril (intraocular pressure) | P/AH ratio (plasma/aqueous humor concentration), times lower than that for timolol [5] [times]
CCOC(=O)[C@H](CCc1ccccc1)N[C@@H](C)C(=O)N1CCC[C@H]1C(=O)O [ENALAPRIL, reference compound] | 15 | 11 | 163 ± 5 | 327 |  |  |  | 
CCOC(=O)C(CCc1ccccc1)NC(C)C(=O)N1CCC[C@H]1C(=O)Oc1cccc(CO[N+](=O)[O-])c1 (stereo partly shown) [NO-ENA] | 65 | 53 | 115 ± 4 | 72 | more than 6 hours | 6 | more pronounced and more lasting | 
CC(C)(C)NC[C@H](COc1nsnc1N1CCOCC1)OC(=O)CCCO[N+](=O)[O-].O=C(O)/C=C\C(=O)O [NO-TIM, (R)-(4-nitroxy)butanoate of 1-[(1,1-dimethylethyl)amino]-3-{[4-(4-morpholinyl)-1,2,5-thiadiazol-3-yl]oxy}-2-propyl maleate] | 58 | 44 |  |  | more than 6 hours | 7 | more pronounced and more lasting | 5.5
CC(C)(C)NC[C@H](O)COc1nsnc1N1CCOCC1 [TIMOLOL, reference compound] | 2 | 6 |  |  |  |  |  | 
